These results are taken from PubChem BioAssay (NCI).

Test systems include MALME-3M melanoma; DU-145 prostate; A549 NSCLC; T-47D breast; CAKI-1 renal; MDA-MB-435; HCT-15 colon; HS 578T breast; NCI/ADR-RES ovarian; HT29 colon.
Experiment in all cases: DTP human tumour cell line panel, 48 h

Where “and” joins values, the source holds several entries; their conditions need not be identical. Equal values may be shown once.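 Exposure lasted 48 hours, with cells grown in 96-well plates and compounds tested at five concentrations. GI50 marks 50% less growth. TGI denotes the concentration required for complete inhibition of growth.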

As usually defined, the TGI is the concentration at which net growth stops. High values mean lower sensitivity of the cells, low ones greater sensitivity of the cells. For the compound `COC(=O)c1ccccc1/C=C1/Cc2ccccc2C1=O`, the total growth inhibition concentration (TGI) in the test on MALME-3M melanoma, with DU-145 prostate, in the test on A549 NSCLC, in the test on T-47D breast, with CAKI-1 renal and with MDA-MB-435 was greater than 100 µM each time. In addition, the TGI is 58.6 µM in the test on HCT-15 colon, 97.3 µM in the test on HS 578T breast, greater than 100 µM in the test on NCI/ADR-RES ovarian and greater than 100 µM with HT29 colon.

With `O=C1CCSSCCC(=O)NCCN1`, the total growth inhibition concentration (TGI) with MALME-3M melanoma, with DU-145 prostate, in the test with A549 NSCLC, in the test with T-47D breast, with CAKI-1 renal and with MDA-MB-435 was greater than 100 µM each time. Also, the TGI in the test with HCT-15 colon, in the test on HS 578T breast, with NCI/ADR-RES ovarian and in the test on HT29 colon was greater than 100 µM each time.

With `C/C(N=Nc1nc2ccccc2s1)=C1/C=CC=CN1O`, the TGI in the test on MALME-3M melanoma was 57.4 µM; in the test on DU-145 prostate, greater than 100 µM; with A549 NSCLC, greater than 100 µM; with T-47D breast, greater than 100 µM; in the test on CAKI-1 renal, greater than 100 µM; with MDA-MB-435 it was greater than 100 µM. The TGI in the test with HCT-15 colon is greater than 100 µM; in the test with HS 578T breast, greater than 100 µM; with NCI/ADR-RES ovarian it was 98.1 µM; in the test on HT29 colon, greater than 100 µM.

As for `CC(C)=C[C@@H]1C[C@H](n2cc(C)c(=O)[nH]c2=O)ON1CCO`, the TGI in the test on MALME-3M melanoma, in the test with DU-145 prostate, with A549 NSCLC, in the test with T-47D breast, with CAKI-1 renal and with MDA-MB-435 was greater than 100 µM in each case. Besides, the concentration for total growth inhibition (TGI) in the test with HCT-15 colon, with HS 578T breast, in the test on NCI/ADR-RES ovarian and with HT29 colon was greater than 100 µM each time.

For the compound `Cc1cc(-c2nc3c(O)cccc3s2)ccc1N`, the concentration for total growth inhibition (TGI) was greater than 100 µM with DU-145 prostate; 47.9 µM in the test with A549 NSCLC; greater than 100 µM in the test on T-47D breast; 56.1 µM in the test on CAKI-1 renal; 38.2 µM in the test on MDA-MB-435; 79 µM with HCT-15 colon. Moreover, the TGI in the test on HS 578T breast was 40.8 µM; in the test with NCI/ADR-RES ovarian it was 50.4 µM; with HT29 colon, 53.3 µM.

For `C=C1C(=O)OC2/C=C(\CO)C(OC(C)=O)CC(O)/C(C)=C/C(OC(=O)C(C)CC)C12` (centres undefined), the TGI was 31.2 µM and 32 µM in the test on MALME-3M melanoma; 43.8 µM in the test with DU-145 prostate; greater than 100 µM with A549 NSCLC; 30.7 µM with T-47D breast; 73.3 µM and 50.5 µM in the test with CAKI-1 renal; 47.6 µM with MDA-MB-435. Besides, the TGI in the test on HCT-15 colon is greater than 100 µM; with HS 578T breast, greater than 100 µM; with NCI/ADR-RES ovarian, greater than 100 µM; in the test with HT29 colon it was 46.6 µM and 35.5 µM.

In the case of `COc1cc2c(cc1OC)C1c3ccccc3CCN1CC2` (centres undefined), the TGI with MALME-3M melanoma, in the test with DU-145 prostate, with A549 NSCLC, in the test on T-47D breast, with CAKI-1 renal and in the test on MDA-MB-435 was greater than 100 µM each time. For the same compound, the total growth inhibition concentration (TGI) in the test on HCT-15 colon, with HS 578T breast, in the test with NCI/ADR-RES ovarian and with HT29 colon was greater than 100 µM in each case.

In the case of `O=C1CCC(=Nc2ccc(Cl)cc2)N1C(=O)COc1ccc(OCC(=O)N2C(=O)CSC2=Nc2ccc(Cl)cc2)cc1`, the concentration for total growth inhibition (TGI) in the test with MALME-3M melanoma, in the test with DU-145 prostate, in the test on A549 NSCLC, in the test on T-47D breast, with CAKI-1 renal and in the test with MDA-MB-435 was greater than 100 µM throughout. The total growth inhibition concentration (TGI) in the test on HCT-15 colon, in the test with HS 578T breast, in the test on NCI/ADR-RES ovarian and in the test on HT29 colon was greater than 100 µM in each case.

As to `O=C(NC(Cc1c[nH]c2ccccc12)C(=O)O)/C(=C/c1ccccc1O)NC(=O)c1ccccc1` (centres undefined), the concentration for total growth inhibition (TGI) with MALME-3M melanoma is greater than 100 µM; in the test on DU-145 prostate, greater than 100 µM; in the test on A549 NSCLC, greater than 100 µM; with T-47D breast, greater than 100 µM; in the test on CAKI-1 renal, 36.9 µM; in the test with MDA-MB-435, greater than 100 µM. The concentration for total growth inhibition (TGI) was greater than 100 µM with HCT-15 colon, 73.3 µM with HS 578T breast, 39.7 µM in the test with NCI/ADR-RES ovarian and greater than 100 µM in the test with HT29 colon.

`CC1(C)O[C@@H]2COC(=O)[C@@H]2O1`: the TGI in the test on MALME-3M melanoma, in the test with DU-145 prostate, in the test on A549 NSCLC, in the test with T-47D breast, with CAKI-1 renal and in the test with MDA-MB-435 was greater than 100 µM each time. Besides, the concentration for total growth inhibition (TGI) in the test on HCT-15 colon, in the test with HS 578T breast, in the test on NCI/ADR-RES ovarian and in the test with HT29 colon was greater than 100 µM each time.

As to `CSCCC(NCc1c(O)ccc2c(-c3ccccc3)cc(=O)oc12)C(=O)O` (centres undefined), the concentration for total growth inhibition (TGI) with MALME-3M melanoma, in the test on DU-145 prostate, in the test with A549 NSCLC, in the test on T-47D breast, in the test with CAKI-1 renal and in the test with MDA-MB-435 was greater than 100 µM each time. The TGI in the test on HCT-15 colon, in the test on HS 578T breast, with NCI/ADR-RES ovarian and in the test with HT29 colon was greater than 100 µM throughout.

As for `CC(CC(C#N)(c1ccccc1)c1ccccc1)N1CCCCC1` (centres undefined), the concentration for total growth inhibition (TGI) is 35.6 µM in the test with MALME-3M melanoma; greater than 100 µM in the test on DU-145 prostate; greater than 100 µM in the test with A549 NSCLC; greater than 100 µM in the test with T-47D breast; greater than 100 µM in the test with CAKI-1 renal; 49.4 µM with MDA-MB-435. Moreover, the concentration for total growth inhibition (TGI) is 68.6 µM with HCT-15 colon, 79.9 µM in the test on HS 578T breast, greater than 100 µM with NCI/ADR-RES ovarian and 51 µM in the test on HT29 colon.

By GI50 is commonly meant the concentration at which growth is held to half of that of the control. On to `Oc1ccc(-c2nnc3sc(-c4ccc(F)cc4)nn23)cc1`, for which the GI50 in the test on MALME-3M melanoma was greater than 100 µM; in the test on DU-145 prostate, 51.2 µM; in the test with A549 NSCLC, greater than 100 µM; in the test with T-47D breast, 21 µM; in the test on CAKI-1 renal, 48.8 µM; in the test with MDA-MB-435, greater than 100 µM. Also, the GI50 with HCT-15 colon was greater than 100 µM; in the test with HS 578T breast it was 16.1 µM; in the test with NCI/ADR-RES ovarian it was 43.6 µM; with HT29 colon, greater than 100 µM. Also, the concentration for total growth inhibition (TGI) in the test on MALME-3M melanoma, in the test on DU-145 prostate, in the test with A549 NSCLC, with T-47D breast, in the test on CAKI-1 renal and in the test on MDA-MB-435 was greater than 100 µM throughout. Also, the TGI in the test with HCT-15 colon was greater than 100 µM; in the test with HS 578T breast, 40.2 µM; in the test with NCI/ADR-RES ovarian, greater than 100 µM; in the test on HT29 colon, greater than 100 µM.
